Laboratory results: article doi:10.1101/2025.05.21.655333v1, “Role of glutamate 292 and lysine 331 in catalysis for the flavoenzyme (S)-6-hydroxynicotine oxidase from Shinella sp. HZN7” (biorxiv, 2025)

Molecular target: T1, NctB (Shinella sp. HZN7, UniProt A0A075BSX9)
T1 construct: synthetic gene in pET29b (NdeI/XhoI), C-terminal His tag, expressed in E. coli BL21(DE3); FAD-containing flavoenzyme
Assay: absorbance spectra before and after SDS/heat release of FAD
Type: binding
Details: pH 7.5; prosthetic group co-purified with the enzyme

T1 sequence (A0A075BSX9 whole entry): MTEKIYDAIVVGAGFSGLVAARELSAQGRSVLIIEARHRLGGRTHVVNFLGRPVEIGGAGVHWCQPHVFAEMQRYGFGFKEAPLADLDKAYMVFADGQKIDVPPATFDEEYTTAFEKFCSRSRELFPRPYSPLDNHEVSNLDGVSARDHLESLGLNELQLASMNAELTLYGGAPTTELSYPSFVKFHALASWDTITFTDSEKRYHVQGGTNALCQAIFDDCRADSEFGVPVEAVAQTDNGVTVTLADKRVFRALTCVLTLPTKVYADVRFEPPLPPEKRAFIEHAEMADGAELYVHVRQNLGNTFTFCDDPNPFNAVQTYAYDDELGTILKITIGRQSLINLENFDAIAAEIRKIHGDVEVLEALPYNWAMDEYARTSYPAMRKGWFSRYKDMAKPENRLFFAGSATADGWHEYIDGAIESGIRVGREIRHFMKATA

For `Cc1cc2nc3c(=O)[nH]c(=O)nc-3n(C[C@H](O)[C@H](O)[C@H](O)COP(=O)(O)OP(=O)(O)OC[C@H]3O[C@@H](n4cnc5c(N)ncnc54)[C@H](O)[C@@H]3O)c2cc1C` [flavin adenine dinucleotide], the “absorbance spectra before and after SDS/heat release of FAD” value was “The extinction coefficient of FAD bound to NctB was then calculated”.
